# Reference: PubChem BioAssay (NCI)
#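 All cell lines were grown in 96-well plates and treated with compound for 48 hours. GI50: concentration for 50% inhibition of growth. The concentration for full growth arrest is given as TGI.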
# Assays:
# Assay in all cases: NCI-60 cell line screen, 48 h
# HS 578T breast = system: HS 578T breast
# LOX IMVI melanoma = system: LOX IMVI melanoma
# M14 melanoma = system: M14 melanoma
# RPMI-8226 leukemia = system: RPMI-8226 leukemia
# SW-620 colon = system: SW-620 colon
# OVCAR-8 ovarian = system: OVCAR-8 ovarian
# MOLT-4 leukemia = system: MOLT-4 leukemia
# OVCAR-3 ovarian = system: OVCAR-3 ovarian
# NCI-H23 lung = system: NCI-H23 lung
# SF-268 CNS = system: SF-268 CNS
# UO-31 renal = system: UO-31 renal
# UACC-62 melanoma = system: UACC-62 melanoma
# SNB-19 CNS = system: SNB-19 CNS
# MCF7 breast = system: MCF7 breast
# HCT-116 colon = system: HCT-116 colon
# SN12C renal = system: SN12C renal
# SF-539 CNS = system: SF-539 CNS
# IGROV1 ovarian = system: IGROV1 ovarian
# PC-3 prostate = system: PC-3 prostate
# NCI-H522 lung = system: NCI-H522 lung
# HOP-62 NSCLC = system: HOP-62 NSCLC
# K-562 leukemia = system: K-562 leukemia
# SK-MEL-5 melanoma = system: SK-MEL-5 melanoma
# HCT-15 colon = system: HCT-15 colon
# A549 NSCLC = system: A549 NSCLC
# CCRF-CEM leukemia = system: CCRF-CEM leukemia
# DU-145 prostate = system: DU-145 prostate
# SF-295 CNS = system: SF-295 CNS
# 786-0 renal = system: 786-0 renal
# HT29 colon = system: HT29 colon
# SR leukemia = system: SR leukemia
# NCI/ADR-RES ovarian = system: NCI/ADR-RES ovarian
# OVCAR-5 ovarian = system: OVCAR-5 ovarian
# MDA-N = system: MDA-N
# CAKI-1 renal = system: CAKI-1 renal
# ACHN renal = system: ACHN renal
# NCI-H460 lung = system: NCI-H460 lung
# MDA-MB-435 = system: MDA-MB-435
# SK-MEL-2 melanoma = system: SK-MEL-2 melanoma
# HCC-2998 colon = system: HCC-2998 colon
# TK-10 renal = system: TK-10 renal
# SK-MEL-28 melanoma = system: SK-MEL-28 melanoma
# EKVX NSCLC = system: EKVX NSCLC
# UACC-257 melanoma = system: UACC-257 melanoma
# COLO 205 colon = system: COLO 205 colon
# KM12 colon = system: KM12 colon
# T-47D breast = system: T-47D breast
# MDA-MB-231 breast = system: MDA-MB-231 breast
# A498 renal = system: A498 renal
# U251 CNS = system: U251 CNS
# RXF 393 renal = system: RXF 393 renal
# HOP-92 NSCLC = system: HOP-92 NSCLC
# NCI-H226 lung = system: NCI-H226 lung
# SNB-75 CNS = system: SNB-75 CNS
# MALME-3M melanoma = system: MALME-3M melanoma
# SK-OV-3 ovarian = system: SK-OV-3 ovarian
# BT-549 breast = system: BT-549 breast
# OVCAR-4 ovarian = system: OVCAR-4 ovarian
# HL-60(TB) leukemia = system: HL-60(TB) leukemia
smiles,measurement,setting,value
CC(=O)OC[C@@]12CC[C@H]3C(C)(C)CCC[C@]3(C)[C@H]1C[C@@H](C1=CC(=O)O[C@H]1O)O2,TGI,HS 578T breast,17 µM
same,TGI,LOX IMVI melanoma,3.42 µM
same,TGI,M14 melanoma,7.65 µM
same,TGI,RPMI-8226 leukemia,7.27 µM
same,TGI,SW-620 colon,19.9 µM
same,TGI,OVCAR-8 ovarian,13.7 µM
same,TGI,MOLT-4 leukemia,6.23 µM
same,TGI,OVCAR-3 ovarian,3.99 µM
same,TGI,NCI-H23 lung,5.01 µM
same,TGI,SF-268 CNS,28.1 µM
same,TGI,UO-31 renal,4.95 µM
same,TGI,UACC-62 melanoma,4.74 µM
same,TGI,SNB-19 CNS,37.2 µM
same,TGI,MCF7 breast,11.2 µM
same,TGI,HCT-116 colon,9.07 µM
same,TGI,SN12C renal,12.4 µM
same,TGI,SF-539 CNS,5.28 µM
same,TGI,IGROV1 ovarian,5.78 µM
same,TGI,PC-3 prostate,17.4 µM
same,TGI,NCI-H522 lung,8.03 µM
same,TGI,HOP-62 NSCLC,23 µM
same,TGI,K-562 leukemia,3.56 µM
same,TGI,SK-MEL-5 melanoma,9.08 µM
same,TGI,HCT-15 colon,5.15 µM
same,TGI,A549 NSCLC,20.4 µM
same,TGI,CCRF-CEM leukemia,3.62 µM
same,TGI,DU-145 prostate,20.4 µM
same,TGI,SF-295 CNS,21.3 µM
same,TGI,786-0 renal,3.32 µM
same,TGI,HT29 colon,7.71 µM
same,TGI,SR leukemia,4.08 µM
same,TGI,NCI/ADR-RES ovarian,16.1 µM
same,TGI,OVCAR-5 ovarian,37.8 µM
same,TGI,MDA-N,5.53 µM
same,TGI,CAKI-1 renal,5.21 µM
same,TGI,ACHN renal,5.12 µM
same,TGI,NCI-H460 lung,29 µM
same,TGI,MDA-MB-435,4.6 µM
same,TGI,SK-MEL-2 melanoma,4.37 µM
same,TGI,HCC-2998 colon,3.12 µM
same,TGI,TK-10 renal,12 µM
same,TGI,SK-MEL-28 melanoma,4.36 µM
same,TGI,EKVX NSCLC,24.3 µM
same,TGI,UACC-257 melanoma,9.26 µM
same,TGI,COLO 205 colon,10.4 µM
same,TGI,KM12 colon,35.8 µM
same,TGI,T-47D breast,8.67 µM
CN(C)c1cc2c(cc1Sc1nc3c(N)nccc3n1CCNCC(C)(C)C)OCO2,GI50,HS 578T breast,2.04 µM
same,TGI,HS 578T breast,23.7 µM
same,GI50,LOX IMVI melanoma,0.417 µM
same,TGI,LOX IMVI melanoma,4.41 µM
same,GI50,M14 melanoma,0.532 µM
same,TGI,M14 melanoma,15.9 µM
same,GI50,RPMI-8226 leukemia,0.658 µM
same,TGI,RPMI-8226 leukemia,19.4 µM
same,GI50,SW-620 colon,0.383 µM
same,TGI,SW-620 colon,13.8 µM
same,GI50,OVCAR-8 ovarian,0.399 µM
same,TGI,OVCAR-8 ovarian,15.8 µM
same,GI50,MOLT-4 leukemia,0.287 µM
same,TGI,MOLT-4 leukemia,3.54 µM
same,GI50,OVCAR-3 ovarian,0.614 µM
same,TGI,OVCAR-3 ovarian,15.8 µM
same,GI50,NCI-H23 lung,0.448 µM
same,TGI,NCI-H23 lung,22.8 µM
same,GI50,MDA-MB-231 breast,0.585 µM
same,TGI,MDA-MB-231 breast,17.1 µM
same,GI50,SF-268 CNS,1.08 µM
same,TGI,SF-268 CNS,22.4 µM
same,GI50,UO-31 renal,0.64 µM
same,TGI,UO-31 renal,19 µM
same,GI50,A498 renal,1.46 µM
same,TGI,A498 renal,10.1 µM
same,GI50,UACC-62 melanoma,0.432 µM
same,TGI,UACC-62 melanoma,5.41 µM
same,GI50,SNB-19 CNS,1 µM
same,TGI,SNB-19 CNS,24.2 µM
same,GI50,MCF7 breast,0.311 µM
same,TGI,MCF7 breast,17.9 µM
same,GI50,HCT-116 colon,0.381 µM
same,TGI,HCT-116 colon,13.9 µM
same,GI50,U251 CNS,0.726 µM
same,TGI,U251 CNS,14.8 µM
same,GI50,SN12C renal,0.507 µM
same,TGI,SN12C renal,25 µM
same,GI50,SF-539 CNS,1.45 µM
same,TGI,SF-539 CNS,16.3 µM
same,GI50,IGROV1 ovarian,0.56 µM
same,TGI,IGROV1 ovarian,21.6 µM
same,GI50,PC-3 prostate,0.615 µM
same,TGI,PC-3 prostate,28.8 µM
same,GI50,NCI-H522 lung,0.453 µM
same,TGI,NCI-H522 lung,14.3 µM
same,GI50,HOP-62 NSCLC,2.39 µM
same,TGI,HOP-62 NSCLC,22.1 µM
same,GI50,K-562 leukemia,0.319 µM
same,TGI,K-562 leukemia,11 µM
same,GI50,SK-MEL-5 melanoma,0.713 µM
same,TGI,SK-MEL-5 melanoma,13.2 µM
same,GI50,HCT-15 colon,0.394 µM
same,TGI,HCT-15 colon,14.5 µM
same,GI50,RXF 393 renal,0.665 µM
same,TGI,RXF 393 renal,15.3 µM
same,GI50,HOP-92 NSCLC,0.334 µM
same,TGI,HOP-92 NSCLC,2.49 µM
same,GI50,A549 NSCLC,0.438 µM
same,TGI,A549 NSCLC,18.7 µM
same,GI50,CCRF-CEM leukemia,0.317 µM
same,TGI,CCRF-CEM leukemia,18.2 µM
same,GI50,DU-145 prostate,0.732 µM
same,TGI,DU-145 prostate,18.5 µM
same,GI50,NCI-H226 lung,1.69 µM
same,TGI,NCI-H226 lung,19.7 µM
same,GI50,SF-295 CNS,0.444 µM
same,TGI,SF-295 CNS,13.6 µM
same,GI50,786-0 renal,3.89 µM
same,TGI,786-0 renal,21.4 µM
same,GI50,HT29 colon,0.285 µM
same,TGI,HT29 colon,11.1 µM
same,GI50,SR leukemia,0.25 µM
same,TGI,SR leukemia,12.2 µM
same,GI50,NCI/ADR-RES ovarian,0.731 µM
same,TGI,NCI/ADR-RES ovarian,24.7 µM
same,GI50,SNB-75 CNS,1.53 µM
same,TGI,SNB-75 CNS,19.1 µM
same,GI50,OVCAR-5 ovarian,1.12 µM
same,TGI,OVCAR-5 ovarian,28.1 µM
same,GI50,CAKI-1 renal,0.591 µM
same,TGI,CAKI-1 renal,39.7 µM
same,GI50,ACHN renal,0.573 µM
same,TGI,ACHN renal,> 59.6 µM
same,GI50,NCI-H460 lung,0.376 µM
same,TGI,NCI-H460 lung,12.1 µM
same,GI50,MDA-MB-435,0.426 µM
same,TGI,MDA-MB-435,15.4 µM
same,GI50,MALME-3M melanoma,0.428 µM
same,TGI,MALME-3M melanoma,4.91 µM
same,GI50,SK-MEL-2 melanoma,1.05 µM
same,TGI,SK-MEL-2 melanoma,16.9 µM
same,GI50,SK-OV-3 ovarian,0.394 µM
same,TGI,SK-OV-3 ovarian,15.2 µM
same,GI50,BT-549 breast,4.22 µM
same,TGI,BT-549 breast,25 µM
same,GI50,HCC-2998 colon,0.805 µM
same,TGI,HCC-2998 colon,6.03 µM
same,GI50,TK-10 renal,0.531 µM
same,TGI,TK-10 renal,19.4 µM
same,GI50,OVCAR-4 ovarian,6.17 µM
same,TGI,OVCAR-4 ovarian,46.2 µM
same,GI50,HL-60(TB) leukemia,0.274 µM
same,TGI,HL-60(TB) leukemia,0.85 µM
same,GI50,SK-MEL-28 melanoma,0.621 µM
same,TGI,SK-MEL-28 melanoma,15.6 µM
same,GI50,EKVX NSCLC,1.34 µM
same,TGI,EKVX NSCLC,35.2 µM
same,GI50,UACC-257 melanoma,0.473 µM
same,TGI,UACC-257 melanoma,11.9 µM
same,GI50,COLO 205 colon,0.37 µM
same,TGI,COLO 205 colon,11.6 µM
same,GI50,KM12 colon,0.305 µM
same,TGI,KM12 colon,2.79 µM
same,GI50,T-47D breast,0.533 µM
same,TGI,T-47D breast,31.1 µM
